# Values of other authors in patent US20200352905A1, “6-(2,4-DICHLOROPHENYL)-5-[4-[(3S)-1-(3-FLUOROPROPYL)PYRROLIDIN-3-YL]OXYPHENYL]-8,9-DIHYDRO-7H-BENZO[7]ANNULENE-2-CARBOXYLIC ACID FOR USE IN METASTATIC OR ADVANCED BREAST CANCER PATIENTS” (SANOFI, priority 2019, published 2020).
# Read-outs that look alike come from different tables or passages of the source.
# Columns and labels:
# [1] = tested on: CYP3A; conditions: cited from earlier work
# [2] = tested on: CYP3A; conditions: cited from earlier work; remark: listed apart in the source
# [3] = tested on: CYP2C8; conditions: cited from earlier work
# [4] = tested on: advanced breast cancer; conditions: prior CDK4/6, mTOR, fulvestrant not allowed, cited from earlier work
# [5] = moderate CYP3A inhibitors, victim midazolam (oral)
# [6] = strong CYP3A inhibitors, victim midazolam (oral)
# [7] = victim Sildenafil, 62.5-125 mg BID 8 weeks
# [8] = victim Quetiapine, 200 mg TID (26 days)
# [9] = victim Midazolam, 1000 mg QD (14 days)
# [10] = victim Midazolam, 1000 mg BID (14 days)
# [11] = victim Triazolam, 200-400 mg QD 28 days
# [12] = victim Nifedipine, 500 mg 4 times daily 5 days
# [13] = victim Verapamil, 100 mg QD 21 days
# [14] = victim Midazolam, 140 mg QD (10 days)
# [15] = victim Indinavir, 500 mg TID 14 days
# [16] = EFECT trial 2003-2005, fulvestrant single agent arm, n=270, setting 2L+
# [17] = PALOMA-3 trial 2013-2014, fulvestrant single agent arm, n=138, setting 2L+
# [18] = SANDPIPER trial 2015-2017, fulvestrant single agent arm, n=134, setting 2L+
# [19] = SoFEA trial 2004-2010, fulvestrant single agent arm, n=178, setting 2L+
smiles,measurement,setting,value
COCCc1ccc(Cl)c(CN(C(=O)[C@H]2CNCC[C@@H]2c2ccc(OCCOc3c(Cl)cc(C)cc3Cl)nc2)C2CC2)c1 [ACT-178882],AUC Ratio,[1]; [5],2.19
CC(C)c1cc(C(C)C)c(CC(=O)NS(=O)(=O)Oc2c(C(C)C)cccc2C(C)C)c(C(C)C)c1 [Avasimibe],% of AUC decrease,"[2]; victim Midazolam, 750 mg/day (7 days)",93.5%
CC(C)(C)NC(=O)N[C@H](C(=O)N1C[C@H]2[C@@H]([C@H]1C(=O)NC(CC1CCC1)C(=O)C(N)=O)C2(C)C)C(C)(C)C (stereo partly drawn) [Boceprevir],AUC Ratio,[1]; [6],5.05
COc1ccccc1Oc1c(NS(=O)(=O)c2ccc(C(C)(C)C)cc2)nc(-c2ncccn2)nc1OCCO [Bosentan],% of AUC decrease,[2]; [7],69%
same,% oral CL increase,[2]; [7],239.8%
NC(=O)N1c2ccccc2C=Cc2ccccc21 [Carbamazepine],Max % of AUC decrease or CL increase,"[3]; substrate dasabuvir, 200 mg QD (3 days) then BID (21 days)",70.3%
same,% of AUC decrease,[2]; [8],86.6%
same,% oral CL increase,[2]; [8],643.1%
CC[C@H]1OC(=O)[C@H](C)[C@@H](O[C@H]2C[C@@](C)(OC)[C@@H](O)[C@H](C)O2)[C@H](C)[C@@H](O[C@@H]2O[C@H](C)C[C@H](N(C)C)[C@H]2O)[C@](C)(OC)C[C@@H](C)C(=O)[C@H](C)[C@@H](O)[C@]1(C)O [Clarithromycin],AUC Ratio,[1]; [6],8.39
Cc1nc2c([nH]1)-c1ccccc1N(C(=O)c1ccc(NC(=O)c3ccccc3-c3ccccc3)cc1)CC2 [Conivaptan],AUC Ratio,[1]; [6],5.76
CCCCc1oc2ccc(NS(C)(=O)=O)cc2c1C(=O)c1ccc(OCCCN(CCCC)CCCC)cc1 [Dronedarone],AUC Ratio,"[1]; moderate CYP3A inhibitors, victim simvastatin",3.66
O=C1Nc2ccc(Cl)cc2[C@@](C#CC2CC2)(C(F)(F)F)O1 [Efavirenz],% of AUC decrease,"[2]; victim Simvastatin acid, 600 mg QD 28 days",60.4%
CNC(=O)c1ccc(N2C(=S)N(c3ccc(C#N)c(C(F)(F)F)c3)C(=O)C2(C)C)cc1F [Enzalutamide],% of AUC decrease,"[2]; victim Midazolam, 160 mg QD (85 ± 3 days)",85.9%
Cc1cc(C#N)cc(C)c1Oc1nc(Nc2ccc(C#N)cc2)nc(N)c1Br [Etravirine],% of AUC decrease,"[2]; victim Sildenafil, 800 mg BID 13.5 days",56.7%
OC(Cn1cncn1)(Cn1cncn1)c1ccc(F)cc1F [Fluconazole],AUC Ratio,[1]; [5],4.93
O=c1c(-c2ccc(O)cc2)coc2cc(O)cc(O)c12 [Genistein],% of AUC decrease,[2]; [9],13.7%
same,% oral CL increase,[2]; [9],136.9%
CC[C@H](Nc1ncnc2[nH]cnc12)c1nc2cccc(F)c2c(=O)n1-c1ccccc1 [Idelalisib],AUC Ratio,[1]; [6],5.15
CCC(C)n1ncn(-c2ccc(N3CCN(c4ccc(OCC5COC(Cn6cncn6)(c6ccc(Cl)cc6Cl)O5)cc4)CC3)cc2)c1=O (stereo not drawn) [Itraconazole],AUC Ratio,[1]; [6],10.80
CC(=O)N1CCN(c2ccc(OCC3COC(Cn4ccnc4)(c4ccc(Cl)cc4Cl)O3)cc2)CC1 (stereo not drawn) [Ketoconazole],AUC Ratio,"[1]; in vivo, po",15.90
CN[C@@H](C)C(=O)N[C@H](C(=O)N1CCC[C@H]1c1nc(C(=O)c2ccc(F)cc2)cs1)C1CCCCC1 [LCL 161],AUC Ratio,[1]; [6],8.80
CCc1nn(CCO)c(CC)c1Oc1cc(C#N)cc(C#N)c1 [Lersivirine],% of AUC decrease,[2]; [10],51.4%
same,% oral CL increase,[2]; [10],105.5%
COCC(=O)O[C@]1(CCN(C)CCCc2nc3ccccc3[nH]2)CCc2cc(F)ccc2[C@@H]1C(C)C [Mibefradil],AUC Ratio,[1]; [6],8.86
Clc1ccc(C(c2ccccc2Cl)C(Cl)Cl)cc1 (stereo not drawn) [Mitotane],% of AUC decrease,"[2]; victim Midazolam, Maximum of 3.5 g TID (chronic therapy)",94.5%
NC(=O)C[S+]([O-])C(c1ccccc1)c1ccccc1 (stereo not drawn) [Modafinil],% of AUC decrease,[2]; [11],57.6%
same,% oral CL increase,[2]; [11],35.7%
CCOc1ccc2ccccc2c1C(=O)N[C@@H]1C(=O)N2[C@@H]1SC(C)(C)[C@@H]2C(=O)O [Naficillin],% of AUC decrease,[2]; [12],62.6%
same,% oral CL increase,[2]; [12],145.1%
CCc1nn(CCCN2CCN(c3cccc(Cl)c3)CC2)c(=O)n1CCOc1ccccc1 [Nefazodone],AUC Ratio,[1]; [6],5.44
Cc1c(O)cccc1C(=O)N[C@@H](CSc1ccccc1)[C@H](O)CN1C[C@H]2CCCC[C@H]2C[C@H]1C(=O)NC(C)(C)C [Nelfinavir],AUC Ratio,[1]; [6],5.29
CCC1(c2ccccc2)C(=O)NC(=O)NC1=O [Phenobarbital],% of AUC decrease,[2]; [13],76.6%
same,% oral CL increase,[2]; [13],400.9%
O=C1NC(=O)C(c2ccccc2)(c2ccccc2)N1 [Phenytoin],% of AUC decrease,"[2]; victim Nisoldipine, 200-450 mg/day (chronic treatment)",89.5%
CC[C@@H]([C@H](C)O)n1ncn(-c2ccc(N3CCN(c4ccc(OC[C@@H]5CO[C@@](Cn6cncn6)(c6ccc(F)cc6F)C5)cc4)CC3)cc2)c1=O [Posaconazole],AUC Ratio,[1]; [6],6.23
CO[C@H]1/C=C/O[C@@]2(C)Oc3c(C)c(O)c4c(c3C2=O)C2=NC3(CCN(CC(C)C)CC3)NC2=C(NC(=O)/C(C)=C\C=C\[C@H](C)[C@H](O)[C@@H](C)[C@@H](O)[C@@H](C)[C@H](OC(C)=O)[C@@H]1C)C4=O [Rifabutin],% oral CL increase,"[2]; victim Delavirdine, 300 mg QD 14 days",458.0%
CO[C@H]1/C=C/O[C@@]2(C)Oc3c(C)c(O)c4c(O)c(c(/C=N/N5CCN(C)CC5)c(O)c4c3C2=O)NC(=O)/C(C)=C\C=C\[C@H](C)[C@H](O)[C@@H](C)[C@@H](O)[C@@H](C)[C@H](OC(C)=O)[C@@H]1C [Rifampin],Max % of AUC decrease or CL increase,"[3]; substrate pioglitazone, 600 mg QD (6 days)",53.8%
same,Max % of AUC decrease or CL increase,"[3]; substrate repaglinide, 600 mg QD (7 days)",79.6%
same,Max % of AUC decrease or CL increase,"[3]; substrate rosiglitazone, 600 mg QD (6 days)",66.4%
CC(C)(C)NC(=O)[C@@H]1C[C@@H]2CCCC[C@@H]2CN1C[C@@H](O)[C@H](Cc1ccccc1)NC(=O)[C@H](CC(N)=O)NC(=O)c1ccc2ccccc2n1 [Saquinavir],AUC Ratio,[1]; [6],5.18
CC(C)[C@H](O)C(=O)N[C@@H](C)C(=O)N[C@@H]1C(=O)N(C)CCc2ccccc21 [Semagacestat],% of AUC decrease,[2]; [14],76.4%
same,% oral CL increase,[2]; [14],324.6%
COc1ccc2c(c1)N(C(=O)OC(C)C)[C@@H](CSC)C(=S)N2 [Talviraline],% of AUC decrease,[2]; [15],61.7%
same,% oral CL increase,[2]; [15],181.2%
CCC[C@H](NC(=O)[C@@H]1[C@H]2CCC[C@H]2CN1C(=O)[C@@H](NC(=O)[C@@H](NC(=O)c1cnccn1)C1CCCCC1)C(C)(C)C)C(=O)C(=O)NC1CC1 [Telaprevir],AUC Ratio,[1]; [6],13.5
CC[C@H]1OC(=O)[C@H](C)C(=O)[C@H](C)[C@@H](O[C@@H]2O[C@H](C)C[C@H](N(C)C)[C@H]2O)[C@](C)(OC)C[C@@H](C)C(=O)[C@H](C)[C@H]2N(CCCCn3cnc(-c4cccnc4)c3)C(=O)O[C@]12C [Telithromycin],AUC Ratio,[1]; [6],6.2
CC(C)CN(C[C@@H](O)[C@H](Cc1ccccc1)NC(=O)O[C@H]1CCOC1)S(=O)(=O)c1ccc(N)cc1 [amprenavir],AUC Ratio,[1]; in vivo,2.93
C[C@@H](O[C@H]1OCCN(Cc2n[nH]c(=O)[nH]2)[C@H]1c1ccc(F)cc1)c1cc(C(F)(F)F)cc(C(F)(F)F)c1 [aprepitant],AUC Ratio,[1]; [5],3.29
COC(=O)N[C@H](C(=O)N[C@@H](Cc1ccccc1)[C@@H](O)CN(Cc1ccc(-c2ccccn2)cc1)NC(=O)[C@@H](NC(=O)OC)C(C)(C)C)C(C)(C)C [atazanavir],AUC Ratio,"[1]; moderate CYP3A inhibitors, victim maraviroc",3.57
CC(=O)N1CCN([C@H]2CCN(C(=O)N(C)[C@H](C)c3cc(C(F)(F)F)cc(C(F)(F)F)c3)[C@@H](c3ccc(F)cc3C)C2)CC1 [casopitant],AUC Ratio,[1]; [5],3.13
C[C@]12CC[C@@H]3c4ccc(O)cc4C[C@@H](CCCCCCCCC[S+]([O-])CCCC(F)(F)C(F)(F)F)[C@H]3[C@@H]1CC[C@@H]2O (stereo partly drawn) [fulvestrant],CBR,[4]; [16],32.2%
same,ORR,[4]; [16],7.4%
same,CBR,[4]; [17],36%
same,ORR,[4]; [17],11%
same,CBR,[4]; [18],37.3%
same,ORR,[4]; [18],11.9%
same,CBR,[4]; [19],31%
same,ORR,[4]; [19],8%
C[C@@H](c1nc(-c2ccc(C#N)cc2)cs1)[C@](O)(Cn1cncn1)c1cc(F)ccc1F [isavuconazole],AUC Ratio,[1]; [5],2.03
N#Cc1ccnc(N2C(=O)CC[C@H]2C(=O)N(c2cncc(F)c2)[C@H](C(=O)NC2CC(F)(F)C2)c2ccccc2Cl)c1 [ivosidenib],Max % of AUC decrease or CL increase,"[3]; substrate repaglinide, 1200 mg QD (19 days), PBPK",59.0 (PBPK) %
Cc1ccccc1-c1cc(N2CCN(C)CC2)ncc1N(C)C(=O)C(C)(C)c1cc(C(F)(F)F)cc(C(F)(F)F)c1 [netupitant],AUC Ratio,[1]; [5],2.44
Cc1cn(-c2cc(NC(=O)c3ccc(C)c(Nc4nccc(-c5cccnc5)n4)c3)cc(C(F)(F)F)c2)cn1 [nilotinib],AUC Ratio,[1]; [5],2.40
CCC1C(C)=NN=C(c2ccc(OC)c(OC)c2)c2cc(OC)c(OC)cc21 (stereo not drawn) [tofisopam],AUC Ratio,[1]; [5],2.36
